Measurements taken from patent US20120283297A1, “OXADIAZOLE SUBSTITUTED INDAZOLE DERIVATIVES FOR USE AS SPHINGOSINE 1-PHOSPHATE 1 (S1P1) RECEPTOR AGONISTS” (GLAXO WELLCOME HOUSE, priority 2009, published 2012).

Each molecule was assayed against T1, S1P1 receptor (Homo sapiens, UniProt P21453) (assay: S1P1 Tango Assay). Conditions: agonist activity, recombinant EDG1-bla/U2OS cells, beta-lactamase FRET readout.
T1 construct: TEV protease site; Gal4-VP16 transcription factor; expressed in transfected cells; host or cells: Tango GPCR-bla U2OS parental cell line (EDG1-bla/U2OS)
T1 sequence (P21453 whole entry, the tested form may be a part): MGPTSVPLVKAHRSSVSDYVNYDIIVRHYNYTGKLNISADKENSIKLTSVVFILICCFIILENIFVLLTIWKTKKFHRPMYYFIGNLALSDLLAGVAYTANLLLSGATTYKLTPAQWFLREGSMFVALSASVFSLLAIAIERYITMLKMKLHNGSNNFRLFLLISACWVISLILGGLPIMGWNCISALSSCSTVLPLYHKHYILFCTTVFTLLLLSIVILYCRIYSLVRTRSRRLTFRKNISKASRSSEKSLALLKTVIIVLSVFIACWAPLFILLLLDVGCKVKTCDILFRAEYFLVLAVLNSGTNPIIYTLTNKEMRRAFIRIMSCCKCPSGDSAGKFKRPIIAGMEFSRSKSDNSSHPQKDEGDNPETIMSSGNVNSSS
Format: cell-based
Source text: The potencies and efficacies of the compounds of this invention for the S1P1 receptor can be determined by S1P1 Tango assay performed on the human cloned receptor as described herein.
Recombinant EDG1-bla/U2OS cells (contain the human Endothelial Differentiation Gene 1 (EDG1) linked to a TEV protease site and a Gal4-VP16 transcription factor stably integrated into the Tango GPCR-bla U2OS parental cell line) were harvested from growth medium and passaged into assay medium (Invitrogen Freestyle Expression Medium). The cells were starved for 24 hours at 37° C., 5% CO2, harvested and resuspended in assay medium at a density of ˜200,000 cells/ml. All test compounds were dissolved in DMSO at a concentration of 10 mM and were prepared in 100% DMSO to provide 10 point dose response curves. Test compounds prepared by Bravo (Velocity11) were added to wells in columns 2-11 and 13-22; DMSO was added to wells in columns 12 and 23 as unstimulated controls and assay medium was added to wells in columns 1 and 24 as cell-free controls. An S1P1 agonist was added to wells in row 2, columns 2-11 as stimulated controls and test compounds were added to wells in row 2, columns 13-22 and rows 3-15, columns 2-11/13-22 (row 1 and 16 were empty and not used). Compounds in solution were added to the assay plate (Greiner 781090) using an Echo (Labcyte) dose-response program (50 nl/well). The unstimulated and cell-free controls were loaded with 50 nl/well pure DMSO to ensure that the DMSO concentration was constant across the plate for all assays.
50 μl of the cell suspension was added to each well in columns 2-23 of the plate (˜10,000 cells per well). 50 μl of assay medium was added to each well in the cell-free controls (columns 1 and 24). The cells were incubated overnight at 37° C./5% CO2. 10 μl of 6× substrate mixture (LiveBLAzer™-FRET BIG substrate (CCF4-AM) Cat # K1096 from Invitrogen, Inc.) was added to each well using Bravo and the plates incubated at room temperature for 2 h in the dark. The plate was finally read on EnVision for two emission channels (460 nm and 530 nm).
The blue/green emission ratio (460 nm/530 nm) was calculated for each well, by dividing the background-subtracted Blue emission values by the background-subtracted Green emission values. The dose response curve is based on sigmoidal dose-response model. All ratio data was normalized based upon the maximum emission ratio of positive control and minimum emission ratio of negative control (DMSO) on each plate. The intrinsic activity (IA) of each compound would be the normalized percentage of its maximum response after curve fitting.
For `CC(C)Oc1ccc(-c2nc(-c3cccc4c3cnn4CC(O)C(=O)O)no2)cc1Cl` (single isomer, unassigned) [Example 9, Lithium 3-[4-(5-{3-chloro-4-[(1-methylethyl)oxy]phenyl}-1,2,4-oxadiazol-3-yl)-1H-indazol-1-yl]-2-hydroxypropanoate], the EC50 was 1 to 10 nM.
Work on `CC(C)Oc1ccc(-c2nc(-c3ccc4[nH]ncc4c3)no2)cc1Cl` [Example 1, 5-(5-{3-Chloro-4-[(1-methylethyl)oxy]phenyl}-1,2,4-oxadiazol-3-yl)-1H-indazole] yielded an EC50 of no more than 1 nM.
`CC(C)Oc1ccc(-c2nc(-c3ccc4[nH]ncc4c3)no2)cc1C#N` [Example 2, 5-[3-(1H-Indazol-5-yl)-1,2,4-oxadiazol-5-yl]-2-[(1-methylethyl)oxy]benzonitrile] showed an EC50 of 1 to 10 nM.
Molecule `CC(C)Oc1ccc(-c2nc(-c3cccc4[nH]ncc34)no2)cc1C#N` [Example 3, 5-[3-(1H-Indazol-4-yl)-1,2,4-oxadiazol-5-yl]-2-[(1-methylethyl)oxy]benzonitrile] has an EC50 of no more than 1 nM.
Molecule `CC(C)Oc1ccc(-c2nc(-c3cccc4[nH]ncc34)no2)cc1Cl` [Example 4, 4-(5-{3-Chloro-4-[(1-methylethyl)oxy]phenyl}-1,2,4-oxadiazol-3-yl)-1H-indazole] has an EC50 of 10 to 100 nM.
With `CC(C)Oc1ccc(-c2nc(-c3cccc4c3cnn4CC(C)C(=O)O)no2)cc1Cl` (centres unmarked) [Example 5, 3-[4-(5-{3-Chloro-4-[(1-methylethyl)oxy]phenyl}-1,2,4-oxadiazol-3-yl)-1H-indazol-1-yl]-2-methylpropanoic acid] the EC50 was 10 to 100 nM.
With `CC(C)Oc1ccc(-c2nc(-c3cccc4c3cnn4CCCCC(=O)O)no2)cc1Cl` [Example 6, 5-[4-(5-{3-Chloro-4-[(1-methylethyl)oxy]phenyl}-1,2,4-oxadiazol-3-yl)-1H-indazol-1-yl]pentanoic acid] the EC50 was 10 to 100 nM.
Molecule `CC(C)Oc1ccc(-c2nc(-c3cccc4c3cnn4C3(CC(=O)O)COC3)no2)cc1Cl` [Example 8, {3-[4-(5-{3-Chloro-4-[(1-methylethyl)oxy]phenyl}-1,2,4-oxadiazol-3-yl)-1H-indazol-1-yl]-3-oxetanyl}acetic acid] has an EC50 of 10 to 100 nM.
`CC(C)Oc1ncc(-c2nc(-c3ccc4c(cnn4CCC(=O)O)c3)no2)cc1Cl` [Example 10, 3-[5-(5-{5-Chloro-6-[(1-methylethyl)oxy]-3-pyridinyl}-1,2,4-oxadiazol-3-yl)-1H-indazol-1-yl]propanoic acid] gave an EC50 of 10 to 100 nM.
In the case of `CC(C)Oc1ncc(-c2nc(-c3ccc4[nH]ncc4c3)no2)cc1Cl` [Example 11, 5-(5-{5-Chloro-6-[(1-methylethyl)oxy]-3-pyridinyl}-1,2,4-oxadiazol-3-yl)-1H-indazole], the EC50 is reported as 10 to 100 nM.
In the case of `Cc1c(-c2noc(-c3cnc(OC(C)C)c(Cl)c3)n2)ccc2c1cnn2CCCC(=O)O` [Example 13, 4-[5-(5-{5-Chloro-6-[(1-methylethyl)oxy]-3-pyridinyl}-1,2,4-oxadiazol-3-yl)-4-methyl-1H-indazol-1-yl]butanoic acid], the EC50 is reported as 1 to 10 nM.
`CC(C)Oc1ncc(-c2nc(-c3ccc4c(cnn4CCCC(=O)O)c3)no2)cc1C#N` [Example 14, 4-[5-(5-{5-Cyano-6-[(1-methylethyl)oxy]-3-pyridinyl}-1,2,4-oxadiazol-3-yl)-1H-indazol-1-yl]butanoic acid] was tested, and the EC50 was no more than 1 nM.
`CC(C)Oc1ncc(-c2nc(-c3cc4cnn(CCCC(=O)O)c4cc3F)no2)cc1Cl` [Example 17, 4-[5-(5-{5-Chloro-6-[(1-methylethyl)oxy]-3-pyridinyl}-1,2,4-oxadiazol-3-yl)-6-fluoro-1H-indazol-1-yl]butanoic acid] gave an EC50 of 10 to 100 nM.
`CC(C)Oc1ncc(-c2nc(-c3cc4cn[nH]c4cc3Cl)no2)cc1Cl` [Example 19, 6-Chloro-5-(5-{5-chloro-6-[(1-methylethyl)oxy]-3-pyridinyl}-1,2,4-oxadiazol-3-yl)-1H-indazole] gave an EC50 of 1 to 10 nM.
